{
  "source": "patent US20070292912A1",
  "about": "“Diffusion-controlling sensor layer” (priority 1999, published 2007)",
  "key": {"[1]": {"system": "Escherichia coli strain SM101 (pEBZ181) recA-lux SOS reporter gene cells", "assay": "Activity measurement with the diffusion-controlling sensor layer (SOS reporter gene cells in agarose on TLC plate)", "assay_type": "cell-based", "conditions": "for Rel. bioluminescence: sensor layer 2 mm, 28° C., 60 min", "description": "(§1) The reporter gene cell consists of the Escherichia coli strain SM101 which harbours the recombinant plasmid pEBZ181. This plasmid encodes a fusion between the recA promoter from E. coli and the structural genes of the bacterial luminescence of Vibrio fischeri (lux genes C, D, A, B, E and G). To construct the plasmid, the recA promoter-harbouring Bam H I fragment from the plasmid pUA80 [Barbe J, Fernandez de Henestrosa A R, Calero S, and Gilbert I (1991) Chromogenic Method for rapid isolation of recA-like mutants of Gram-negative bacteria. J. Bacteriol. 173: 404-406] was cloned into a derivative of the vector pEBZ112 [Peitzsch N, Eberz G, and Nies D (1998) Alcaligenes eutrophus as a bacterial chromate sensor. Appl. Environm. Microbiol. 64: 453-458] which harbours, inserted into the Nco I site of the luxG gene, a lacZ cassette [Becker A (1993) Analyse der Succinoglycan-Biosyntheseregion von Rhizobium meliloti 2011: Untersuchungen zur Identifizierung des bakteriellen Infektionssignals in der Symbiose mit Luzeme, doctoral thesis, Bielefeld University, Germany]. Plasmid pEBZ181 was transformed by standard methods [Sambrook J, Fritsch E F, and Maniatis T (1989) Molecular cloning: A laboratory manual (2nd edn), Cold Spring Harbor Laboratory Press] into the Escherichia coli strain SMIOI (obtained from E. coli Genetic Stock Center, Yale University, New Haven, USA) and employed for bioimaging experiments.\nTreatment of bacteria with antibacterial agents such as 4-quinolonecarboxylic acids leads to induction of the so-called SOS repair mechanism [Walker C G (1984) Mutagenesis and inducible responses to deoxyribonucleic acid damage in Escherichia coli. Microbiol. Rev. 48: 60-93; Phillips I, Culabras E, Moreno F, and Baquero F (1987) Induction of the SOS response by new 4-quinolones. J. Antimicrob. Chemother. 20: 631-638; Piddock L J V, and Wise R (1987) Induction of the SOS response in Escherichia coli by 4-quinone antimicrobial agents. FEMS Microbiol. Lett. 41: 289-294]. The RecA protein is a main regulator of this repair mechanism, and SOS induction leads to enhanced expression of the recA gene. Measurement of the synthesis of the RecA protein [Little J W and Mount D W (1982) The SOS regulatory system of Escherichia coli. Cell 29: 11-22; Witkin E M (1976) Ultraviolet mutagenesis and inducible DNA repair in Escherichia coli. Bacteriol. Rev. 40: 864-907] or of recA-reporter gene fusions [Nunoshiba T and Nishioka H (1991) Rec-lac test for detecting SOS-inducing activity of environmental genotoxic substances. […]\nIn both assay formats ciprofloxacin was used for effect-specific induction of the SOS response. The bioluminescence stimulated in the reporter gene system used in this case provided the read-out signal which was recorded by video imaging. […]"}, "[2]": {"system": "Escherichia coli strain SM101 (pEBZ181) recA-lux SOS reporter gene cells", "assay": "Microtitre plate assay with SOS reporter gene system (recA-lux bioluminescence stimulated by ciprofloxacin)", "assay_type": "cell-based", "conditions": "for Rel. bioluminescence: microtitre plate, 28° C., 60 min, relative to CTAB-free reference", "description": "as §1\nTreatment of bacteria with antibacterial agents such as 4-quinolonecarboxylic acids leads to induction of the so-called SOS repair mechanism [Walker C G (1984) Mutagenesis and inducible responses to deoxyribonucleic acid damage in Escherichia coli. Microbiol. Rev. 48: 60-93; Phillips I, Culabras E, Moreno F, and Baquero F (1987) Induction of the SOS response by new 4-quinolones. J. Antimicrob. Chemother. 20: 631-638; Piddock L J V, and Wise R (1987) Induction of the SOS response in Escherichia coli by 4-quinone antimicrobial agents. FEMS Microbiol. Lett. 41: 289-294]. The RecA protein is a main regulator of this repair mechanism, and SOS induction leads to enhanced expression of the recA gene. Measurement of the synthesis of the RecA protein [Little J W and Mount D W (1982) The SOS regulatory system of Escherichia coli. Cell 29: 11-22; Witkin E M (1976) Ultraviolet mutagenesis and inducible DNA repair in Escherichia coli. Bacteriol. Rev. 40: 864-907] or of recA-reporter gene fusions [Nunoshiba T and Nishioka H (1991) Rec-lac test for detecting SOS-inducing activity of environmental genotoxic substances. Mutation Res. 254:71-77] is one possible way of measuring SOS induction and consequently the effect of 4-quinolonecarboxylic acids. Since the strain E. coli SM101 (pEBZ181) harbours a plasmid with a recA-lux reporter gene fusion, it is suitable for detecting 4-quinolonecarboxylic acids or other SOS-inducing compounds. The presence of such compounds leads to enhanced expression of the luciferase gene and thus to a stimulation of bioluminescence.\nIn both assay formats ciprofloxacin was used for effect-specific induction of the SOS response. The bioluminescence stimulated in the reporter gene system used in this case provided the read-out signal which was recorded by video imaging. In order to test the tolerance of the two bioassay formats to interfering substances, assays were carried out in the presence of cytotoxic cetyltrimethylammonium bromide (CTAB).\nFive assay solutions were made up in a 96-well microtitre plate (Dynatech Microlite). A volume of 200 μl contained in each case:\n16 μl of reporter gene cell suspension (OD: 1.2 at 660 nm) in 2% LB medium\n90 μl of solution of substances 1.-5. in water\n1. 25 ng of ciprofloxacin hydrochloride monohydrate\n2. 25 ng of ciprofloxacin hydrochloride monohydrate+50 ng of CTAB\n3. 25 ng of ciprofloxacin hydrochloride monohydrate+100 ng of CTAB\n4. 25 ng of ciprofloxacin hydrochloride monohydrate+200 ng of CTAB\n5. 25 ng of ciprofloxacin hydrochloride monohydrate+500 ng of CTAB […]"}},
  "data": [
    {"smiles": "CCCCCCCCCCCCCCCC[N+](C)(C)C.[Br-]", "note": "[CTAB, cetyltrimethylammonium bromide]", "values": [
      {"measurement": "Rel. bioluminescence", "setting": "[1]; CTAB 250 ng/200 μl (calculated analogous concentration) with 10 ng ciprofloxacin hydrochloride monohydrate", "value": 1.002},
      {"measurement": "Rel. bioluminescence", "setting": "[1]; CTAB 500 ng/200 μl (calculated analogous concentration) with 10 ng ciprofloxacin hydrochloride monohydrate", "value": 1.023},
      {"measurement": "bioactivity measurement on addition of CTAB", "setting": "[1]; sensor layer format, ciprofloxacin-stimulated bioluminescence", "value": "not impaired"},
      {"measurement": "relative bioluminescence as a measure of the selective stimulation by ciprofloxacin", "setting": "[1]; sensor layer format, up to CTAB concentrations of 500 ng/200 μl", "value": "remained constant"},
      {"measurement": "Rel. bioluminescence", "setting": "[2]; CTAB 50 ng/200 μl with 25 ng ciprofloxacin hydrochloride monohydrate", "value": 0.88},
      {"measurement": "Rel. bioluminescence", "setting": "[2]; CTAB 100 ng/200 μl with 25 ng ciprofloxacin hydrochloride monohydrate", "value": 0.87},
      {"measurement": "Rel. bioluminescence", "setting": "[2]; CTAB 200 ng/200 μl with 25 ng ciprofloxacin hydrochloride monohydrate", "value": 0.78},
      {"measurement": "Rel. bioluminescence", "setting": "[2]; CTAB 500 ng/200 μl with 25 ng ciprofloxacin hydrochloride monohydrate", "value": 0.44},
      {"measurement": "reduction in bioluminescence", "setting": "[2]; microtitre plate format, CTAB concentrations up to 500 ng/200 μl, ciprofloxacin-stimulated", "value": "more than 50%"},
      {"measurement": "fall in the bioluminescence (of the initial value)", "setting": "[2]; microtitre plate format, addition of CTAB, ciprofloxacin-stimulated", "value": "about 40%"}
    ]}
  ]
}
